# According to ChEMBL document CHEMBL1133133, “Difluoroketones as inhibitors of matrix metalloprotease-13” (Bioorg Med Chem Lett, 2000):
# Target: Collagenase 3 (Homo sapiens, UniProt P45452)
# Assay: Inhibition of Matrix metalloprotease-13
row,SMILES,IC50 [µM]
1,CNC(=O)C(NC(=O)C(CCc1ccccc1)CC(O)C(F)(F)c1ccc(Cc2ccccc2)cc1)C(C)(C)C (centres undefined),> 30
2,CNC(=O)C(NC(=O)C(CCc1ccccc1)CC(=O)C(F)(F)c1ccc(Cc2ccccc2)cc1)C(C)(C)C (centres undefined),5.1
3,CNC(=O)C(NC(=O)CCC(=O)C(F)(F)c1ccc(Cc2ccccc2)cc1)C(C)(C)C (centres undefined),12
4,C=CCCC(=O)C(F)(F)c1ccc(Cc2ccccc2)cc1,> 30
5,CNC(=O)[C@@H](NC(=O)C(CCc1ccccc1)CP(=O)(O)Cc1ccc(Cc2ccccc2)cc1)C(C)(C)C (some centres undefined),0.014
6,O=C(CCCCc1ccccc1)C(F)(F)c1ccc(Cc2ccccc2)cc1,> 30
7,O=C(C(CCc1ccccc1)CC(=O)C(F)(F)c1ccc(Cc2ccccc2)cc1)N1CCCCC1 (centres undefined),6.1
8,C=CC(CCc1ccccc1)CC(=O)C(F)(F)c1ccc(Cc2ccccc2)cc1 (centres undefined),0.29
9,C=CC(CCc1ccccc1)CC(O)C(F)(F)c1ccc(Cc2ccccc2)cc1 (centres undefined),27
